Test results as given in publication PMC12525728, “Safety, Pharmacokinetics, Translational and Molecular Mechanistic Insights on the Prostate Cancer Recurrence Suppressor Pseurotin A” (Molecules, 2025).

Test system: Swiss albino mice
Assay: 90-day daily oral dosing sub-chronic toxicity study (body weight, behavior, organ weight, histology)
Assay type: in vivo
Conditions: for Relative organ weight, Brain / Relative organ weight, Heart / Relative organ weight, Kidneys / Relative organ weight, Liver / Relative organ weight, Lungs / Relative organ weight, Spleen: mean ± SD
Description: For the 90-day daily oral dosing sub-chronic toxicity study, twenty male and twenty female healthy 8-week-old Swiss albino mice were randomly selected and randomized to […] (n = 5/sex/group). Mice received free access to purified drinking water and high-fat diet (HFD) pelleted rodent chow (11.4% total fat, no. 7004, Envigo/Teklad, Madison, WI, USA) until the day before sacrifice, at which time they were fasted for 8 h and allowed only free access to drinking water. Daily doses of PsA (10, 40, 80 mg/kg body weight) were administered to the mice formulated in <5% DMSO (Mediatech Inc., Manassas, VA, USA) and <0.2% Tween 80 (Croda Inc., Princeton, NJ, USA) at a volume not exceeding 1% of body weight by metal oral gavage (2 mm diameter with stainless steel bite protector, 18-gauge, 3.81 cm long). […] The mice were observed weekly until the completion of the study. The body weights of the mice were measured in grams using a Scout^TM Pro (Ohaus Corp., Pine Brook, NJ, USA) on day 0, 4, 8, 11, 14, 21, 28, 35, 42, 49, 56, 63, 70, 77, 83, and 90 after initial treatment. On day 90, all mice were anesthetized using isoflurane (USP-vaporizer method, Matrix VIP-3000, Covetrus, Dublin, OH, USA, exposure of animals in an anesthesia chamber at 3% isoflurane vaporization rate. Exposure time 2 min). Mice were then euthanized by cervical dislocation according to the 2020 AVMA Guidelines on Euthanasia and dissected. Mice organs (brain, liver, kidney, heart, lungs, spleen) were excised and weighed for histopathological examination. The organs were stored in 10% neutral buffered formalin (Avantor Science Central, Allentown, PA, USA) for 24 h and then transferred to 70% ethanol (AAPER ALCOHOL, Shelbyville, KY, USA). This study was performed following the OECD guideline 408 for the testing of chemicals.
The experimental animals’ organs were carefully excised and quickly fixed in 10% neutral buffered formalin for 24 h before being transferred to 70% ethanol. The organs were embedded in paraffin before sectioning and staining with hematoxylin and eosin (H&E). All sectioning and staining were conducted at the AML Laboratories (Jacksonville, FL, USA). The paraffin-embedded tissues were sliced into 5 µm-thick sections before being mounted on a positively charged slide. The 5 µm-thick sections were then dewaxed using xylene, rinsed using 80–95% ethanol, and rehydrated using H2O. They were subsequently stained with H&E before being dehydrated again using 80–95% ethanol to xylene.
Results for the hematological and biochemical parameters were analyzed separately by One-way Analysis of Variance (ANOVA), followed by multiple comparisons with Dunnett’s test. All statistical analyses were performed using GraphPad Prism version 8 software (San Diego, CA, USA). Data in this study were expressed as a mean ± SD (standard deviation) and mean ± SEM (standard error of mean). A probability value of <0.05 was considered statistically significant (* p < 0.05; ** p < 0.01; and *** p < 0.001).

[1] = female, 10mg/kg daily oral 90 days
[2] = female, 40mg/kg daily oral 90 days
[3] = female, 80mg/kg daily oral 90 days
[4] = male, 10mg/kg daily oral 90 days
[5] = male, 40mg/kg daily oral 90 days
[6] = male, 80mg/kg daily oral 90 days

CC/C=C\[C@H](O)[C@H](O)C1=C(C)C(=O)[C@]2(O1)C(=O)N[C@@](OC)(C(=O)c1ccccc1)[C@@H]2O [PsA, pseurotin A]
behavioral, neuromuscular and autonomic responses (daily oral doses over 90 days): no observable effects | Relative organ weight, Brain [1]: 438.5 ± 18.9 | Relative organ weight, Heart [1]: 197.7 ± 33.5 | Relative organ weight, Kidneys [1]: 475.9 ± 31.8 | Relative organ weight, Liver [1]: 1218 ± 31.6 | Relative organ weight, Lungs [1]: 211.7 ± 40.2 | Relative organ weight, Spleen [1]: 106.3 ± 48.4 | Relative organ weight, Brain [2]: 355.1 ± 25.2 | Relative organ weight, Heart [2]: 186.2 ± 12.3 | Relative organ weight, Kidneys [2]: 470.4 ± 87.8 | Relative organ weight, Liver [2]: 1311 ± 135.7 | Relative organ weight, Lungs [2]: 229.0 ± 37.1 | Relative organ weight, Spleen [2]: 125.1 ± 22.6 | Relative organ weight, Brain [3]: 376.7 ± 47.4 | Relative organ weight, Heart [3]: 231.1 ± 24.4 | Relative organ weight, Kidneys [3]: 461.9 ± 20.6 | Relative organ weight, Liver [3]: 1369 ± 146.3 | Relative organ weight, Lungs [3]: 236.9 ± 66.2 | Relative organ weight, Spleen [3]: 109.7 ± 20.2 | average heart weight versus vehicle control (male 10 mg/kg and 40 mg/kg groups, 90 days): significant decrease | body weight versus vehicle control (male and female, 10, 40, 80 mg/kg daily oral 90 days, sixteen time points): did not show any significant changes | Relative organ weight, Heart [4]: 248.1 ± 54.6 | Relative organ weight, Kidneys [4]: 684.7 ± 41.0 | Relative organ weight, Liver [4]: 1881 ± 134.3 | Relative organ weight, Lungs [4]: 288.8 ± 62.4 | Relative organ weight, Spleen [4]: 114.7 ± 21.4 | Relative organ weight, Brain [5]: 413.6 ± 54.5 | Relative organ weight, Heart [5]: 261.7 ± 25.2 | Relative organ weight, Kidneys [5]: 747.5 ± 92.3 | Relative organ weight, Liver [5]: 1869 ± 295.8 | Relative organ weight, Lungs [5]: 302.1 ± 23.5 | Relative organ weight, Spleen [5]: 118.5 ± 3.9 | Relative organ weight, Brain [6]: 409.2 ± 28.3 | Relative organ weight, Heart [6]: 320.8 ± 58.9 | Relative organ weight, Kidneys [6]: 673.7 ± 50.1 | Relative organ weight, Liver [6]: 1946 ± 272.4 | Relative organ weight, Lungs [6]: 209.9 ± 61.0 | Relative organ weight, Spleen [6]: 108.7 ± 12.1 | organ histology (liver, lungs, kidneys, heart, brain) versus vehicle control (up to 80 mg/kg, 90-day dosing, H&E): no structural or morphological differences
